Measurements as given in patent US11052063B2, “Methods of reducing RLP-C” (Amarin Pharmaceuticals Ireland Limited, priority 2014, dated 2021).

Test system: Serum RLP-C
Test: 12-week placebo-controlled study (MARINE), serum RLP-C by immunoseparation assay, patients with fasting TG ≥500 mg/dL
Assay type: in vivo, human
Details: for Median Change from Baseline in RLP-C vs. Placebo: Hodges-Lehmann estimate; for Median Change from Baseline in RLP-C vs. Placebo / RLP-C Concentration End of Treatment: week 12; for RLP-C Concentration Change: median change from baseline to week 12; for RLP-C Concentration Baseline / RLP-C Concentration End of Treatment: median; for RLP-C Concentration Baseline: before treatment
Description: A multi-center, placebo-controlled randomized, double-blind, 12-week study with an open-label extension was performed to evaluate the efficacy and safety of AMR101 in patients with fasting triglyceride levels≥500 mg/dL. The primary objective of the study was to determine the efficacy of >96%, by weight of all fatty acids present, ethyl-EPA (“AMR101”) 2 g daily and 4 g daily, compared to placebo, in lowering fasting TG levels in patients with fasting TG levels≥500 mg/dL and ≤1500 mg/dL (≥5.65 mmol/L and ≤16.94 mmol/L). The population for this study was men and women (women of childbearing potential needed to be on contraception or practice abstinence) >18 years of age with a body mass index≤45 kg/m^2 who were not on lipid-altering therapy or were not currently on lipid-altering therapy. Patients currently on statin therapy (with or without ezetimibe) were evaluated by the investigator as to whether this therapy could be safely discontinued at screening, or if it should have been continued. If statin therapy (with or without ezetimibe) was to be continued, dose(s) must have been stable for ≥4 weeks prior to randomization. Patients taking non-statin, lipid-altering medications (niacin>200 mg/day, fibrates, fish oil, other products containing omega-3 fatty acids, or other herbal products or dietary supplements with potential lipid-altering effects), either alone or in combination with statin therapy (with or without ezetimibe), must have been able to safely discontinue non-statin, lipid-altering therapy at screening. Approximately 240 patients were randomized at approximately 50 centers in North America, South America, Central America, Europe, India, and South Africa. The study was a 58- to 60-week, Phase 3, multi-center study consisting of 3 study periods: (1) a 6- to 8-week screening period that included a diet and lifestyle stabilization and washout period and a TG qualifying period; (2) a 12-week, double-blind, randomized, placebo-controlled treatment period; and (3) a 40-week, open-label, extension period. After confirmation of qualifying fasting TG values, eligible patients entered a 12-week, randomized, double-blind treatment period. At Visit 4 (Week 0), patients were randomly assigned to one of the following treatment groups: • AMR101 2 g daily, • AMR101 4 g daily, or • Placebo. Eligible patients were randomly assigned at Visit 4 (Week 0) to orally receive AMR101 2 g daily, AMR101 4 g daily, or placebo for the 12-week double-blind treatment period. AMR101 was provided in 1 g liquid-filled, oblong, gelatin capsules. The matching placebo capsule was filled with light liquid paraffin and contained 0 g of AMR101. During the double-blind treatment period, patients took 2 capsules (AMR101 or matching placebo) in the morning and 2 in the evening for a total of 4 capsules per day. Patients in the AMR101 2 g/day treatment group received 1 AMR101 1 g capsule and 1 matching placebo capsule in the morning and in the evening. Patients in the AMR101 4 g/day treatment group received 2 AMR101 1 g capsules in the morning and evening. The primary efficacy variable for the double-blind treatment period was percent change in TG from baseline to Week 12 endpoint. […]

[1] = 2 g/day, Baseline TG >750 mg/dl
[2] = 2 g/day, Baseline TG ≤750 mg/dl
[3] = 4 g/day, Baseline TG >750 mg/dl
[4] = 4 g/day, Baseline TG ≤750 mg/dl

SMILES: CC/C=C\C/C=C\C/C=C\C/C=C\C/C=C\CCCC(=O)OCC [AMR101, ethyl-EPA]
- RLP-C compared to placebo (2 g/day treatment group, 12 weeks): reduced RLP-C compared to placebo
- Median Change from Baseline in RLP-C vs. Placebo [1]: −25.4%
- RLP-C Concentration Change [1]: −10.7%
- RLP-C Concentration Baseline [1]: 66.0 mg/dL
- RLP-C Concentration End of Treatment [1]: 65.0 mg/dL
- Median Change from Baseline in RLP-C vs. Placebo [2]: −7.3%
- RLP-C Concentration Change [2]: 18.2%
- RLP-C Concentration Baseline [2]: 27.5 mg/dL
- RLP-C Concentration End of Treatment [2]: 32.5 mg/dL
- Median Change from Baseline in RLP-C vs. Placebo (2 g/day, ITT): −14.9%
- RLP-C Concentration Change (2 g/day, ITT): 5.8%
- RLP-C Concentration Baseline (2 g/day, ITT): 43.0 mg/dL
- RLP-C Concentration End of Treatment (2 g/day, ITT): 44.5 mg/dL
- Median Change from Baseline in RLP-C vs. Placebo (2 g/day, No Statin Use): −8.5%
- RLP-C Concentration Change (2 g/day, No Statin Use): 3.0%
- RLP-C Concentration Baseline (2 g/day, No Statin Use): 45.0 mg/dL
- RLP-C Concentration End of Treatment (2 g/day, No Statin Use): 44.5 mg/dL
- Median Change from Baseline in RLP-C vs. Placebo (2 g/day, With Statin Use): −41.6%
- RLP-C Concentration Change (2 g/day, With Statin Use): 29.2%
- RLP-C Concentration Baseline (2 g/day, With Statin Use): 31.5 mg/dL
- RLP-C Concentration End of Treatment (2 g/day, With Statin Use): 46.5 mg/dL
- median placebo-adjusted reductions in RLP-C (4 g/day treatment group, 12 weeks, p=0.0041, stated as reduction): 29.8%
- reductions in RLP-C compared to baseline (4 g/day treatment group, 12 weeks, stated as reduction): 16.1%
- Median Change from Baseline in RLP-C vs. Placebo [3]: −37.5%
- RLP-C Concentration Change [3]: −25.4%
- RLP-C Concentration Baseline [3]: 89.5 mg/dL
- RLP-C Concentration End of Treatment [3]: 68.5 mg/dL
- Median Change from Baseline in RLP-C vs. Placebo [4]: −26.1%
- RLP-C Concentration Change [4]: −8.8%
- RLP-C Concentration Baseline [4]: 34.0 mg/dL
- RLP-C Concentration End of Treatment [4]: 29.0 mg/dL
- Median Change from Baseline in RLP-C vs. Placebo (4 g/day, ITT): −29.8%
- RLP-C Concentration Change (4 g/day, ITT): −16.1%
- RLP-C Concentration Baseline (4 g/day, ITT): 45.0 mg/dL
- RLP-C Concentration End of Treatment (4 g/day, ITT): 38.0 mg/dL
- Median Change from Baseline in RLP-C vs. Placebo (4 g/day, No Statin Use): −21.4%
- RLP-C Concentration Change (4 g/day, No Statin Use): −16.6%
- RLP-C Concentration Baseline (4 g/day, No Statin Use): 45.0 mg/dL
- RLP-C Concentration End of Treatment (4 g/day, No Statin Use): 39.5 mg/dL
- Median Change from Baseline in RLP-C vs. Placebo (4 g/day, With Statin Use): −56.8%
- RLP-C Concentration Change (4 g/day, With Statin Use): −16.1%
- RLP-C Concentration Baseline (4 g/day, With Statin Use): 37.0 mg/dL
- RLP-C Concentration End of Treatment (4 g/day, With Statin Use): 33.0 mg/dL
